Results as given in PubChem BioAssay AID2060501 (Molecular Pharmacology Branch, DTP, NCI, 2025).

Test system: 282377-053-R-J1-PDC complex spheroids, viability
Test: Anticancer human tumor 282377-053-R-J1-PDC patient-derived colon adenocarcinoma cell line growth inhibition [GQUAD]
Settings: for IC50: curve of first compound; for viability, T/C: stronger effect = lower value
How it was run: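 Viability of tumor cells grown as complex spheroids with endothelial and stromal cells, exposed to drug combinations. Top concentration at or near clinical Cmax (else 10 microM), diluted in half-log increments.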

[1] = second compound 0.0316 µM, first compound 0.000999 µM
[2] = second compound 0.0316 µM, first compound 0.00316 µM
[3] = second compound 0.0316 µM, first compound 0.00999 µM
[4] = second compound 0.0316 µM, first compound 0.0316 µM
[5] = second compound 0.0316 µM, first compound 0.0999 µM
[6] = second compound 0.0316 µM, first compound 0.316 µM
[7] = second compound 0.1 µM, first compound 0.000999 µM
[8] = second compound 0.1 µM, first compound 0.00316 µM
[9] = second compound 0.1 µM, first compound 0.00999 µM
[10] = second compound 0.1 µM, first compound 0.0316 µM
[11] = second compound 0.1 µM, first compound 0.0999 µM
[12] = second compound 0.1 µM, first compound 0.316 µM
[13] = second compound 0.316 µM, first compound 0.000999 µM
[14] = second compound 0.316 µM, first compound 0.00316 µM
[15] = second compound 0.316 µM, first compound 0.00999 µM
[16] = second compound 0.316 µM, first compound 0.0316 µM
[17] = second compound 0.316 µM, first compound 0.0999 µM
[18] = second compound 0.316 µM, first compound 0.316 µM
[19] = second compound 1 µM, first compound 0.000999 µM
[20] = second compound 1 µM, first compound 0.00316 µM
[21] = second compound 1 µM, first compound 0.00999 µM
[22] = second compound 1 µM, first compound 0.0316 µM
[23] = second compound 1 µM, first compound 0.0999 µM
[24] = second compound 1 µM, first compound 0.316 µM
[25] = second compound 3.16 µM, first compound 0.000999 µM
[26] = second compound 3.16 µM, first compound 0.00316 µM
[27] = second compound 3.16 µM, first compound 0.00999 µM
[28] = second compound 3.16 µM, first compound 0.0316 µM
[29] = second compound 3.16 µM, first compound 0.0999 µM
[30] = second compound 3.16 µM, first compound 0.316 µM
[31] = second compound 10 µM, first compound 0.000999 µM
[32] = second compound 10 µM, first compound 0.00316 µM
[33] = second compound 10 µM, first compound 0.00999 µM
[34] = second compound 10 µM, first compound 0.0316 µM
[35] = second compound 10 µM, first compound 0.0999 µM
[36] = second compound 10 µM, first compound 0.316 µM
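Further: spheroids exposed to compounds for 7 days before readout.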
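Wherever viability, T/C is given: percent of vehicle DMSO control viability with 100% = untreated-like growth.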

CCc1c2c(nc3ccc(O)cc13)-c1cc3c(c(=O)n1C2)COC(=O)[C@]3(O)CC + Cc1cnc(CNC(=O)c2c(=O)c3ccc(N4CCCN(C)CC4)nc3n3c2sc2ccccc23)cn1
IC50 (second compound 0.0316 µM): 36.9 nM | IC50 (second compound 0.1 µM): 49.8 nM | IC50 (second compound 0.316 µM): 24.8 nM | IC50 (second compound 1 µM): 8.72 nM | IC50 (second compound 3.16 µM): < 0.999 nM | IC50 (second compound 10 µM): < 0.999 nM | viability, T/C [1]: 117% | viability, T/C [2]: 96.3% | viability, T/C [3]: 57.4% | viability, T/C [4]: 56.4% | viability, T/C [5]: 43.5% | viability, T/C [6]: 27.2% | viability, T/C [7]: 88.4% | viability, T/C [8]: 79.4% | viability, T/C [9]: 57.3% | viability, T/C [10]: 59.4% | viability, T/C [11]: 46.5% | viability, T/C [12]: 27.9% | viability, T/C [13]: 81.8% | viability, T/C [14]: 67.9% | viability, T/C [15]: 55% | viability, T/C [16]: 51.5% | viability, T/C [17]: 38.5% | viability, T/C [18]: 28.8% | viability, T/C [19]: 66% | viability, T/C [20]: 58.1% | viability, T/C [21]: 44.4% | viability, T/C [22]: 42.9% | viability, T/C [23]: 35.9% | viability, T/C [24]: 25.1% | viability, T/C [25]: 46.6% | viability, T/C [26]: 41.5% | viability, T/C [27]: 37.5% | viability, T/C [28]: 40.9% | viability, T/C [29]: 33.4% | viability, T/C [30]: 19.4% | viability, T/C [31]: 46.6% | viability, T/C [32]: 38.4% | viability, T/C [33]: 38.9% | viability, T/C [34]: 40.9% | viability, T/C [35]: 32.6% | viability, T/C [36]: 11.1%

CC[C@@]1(O)C(=O)OCc2c1cc1n(c2=O)Cc2cc3c(CN(C)C)c(O)ccc3nc2-1 + Cc1[nH]c2ccc(F)cc2c1-c1nc2c3cccnc3c3ncccc3c2[nH]1
IC50 (second compound 0.0316 µM): > 316 nM | IC50 (second compound 0.1 µM): > 316 nM | IC50 (second compound 0.316 µM): > 316 nM | IC50 (second compound 1 µM): > 316 nM | IC50 (second compound 3.16 µM): 130 nM | IC50 (second compound 10 µM): < 0.999 nM | viability, T/C [1]: 92.6% | viability, T/C [2]: 117% | viability, T/C [3]: 116% | viability, T/C [4]: 93.1% | viability, T/C [5]: 91.5% | viability, T/C [6]: 49.9% | viability, T/C [7]: 126% | viability, T/C [8]: 93.2% | viability, T/C [9]: 87.1% | viability, T/C [10]: 92% | viability, T/C [11]: 93.2% | viability, T/C [12]: 58.8% | viability, T/C [13]: 80.3% | viability, T/C [14]: 104% | viability, T/C [15]: 103% | viability, T/C [16]: 94.2% | viability, T/C [17]: 84% | viability, T/C [18]: 61.9% | viability, T/C [19]: 86.6% | viability, T/C [20]: 109% | viability, T/C [21]: 94.8% | viability, T/C [22]: 102% | viability, T/C [23]: 94.8% | viability, T/C [24]: 54.3% | viability, T/C [25]: 77.8% | viability, T/C [26]: 79.4% | viability, T/C [27]: 81.4% | viability, T/C [28]: 58.3% | viability, T/C [29]: 64% | viability, T/C [30]: 24.5% | viability, T/C [31]: 36.6% | viability, T/C [32]: 35.9% | viability, T/C [33]: 48.3% | viability, T/C [34]: 41.5% | viability, T/C [35]: 31.3% | viability, T/C [36]: 17.5%
